Measured values from ChEMBL document CHEMBL1201862, “PubChem BioAssay data set” (2004).
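Results reflect a 48-hour exposure of cells in 96-well plates to compound at five concentrations. GI50 marks 50% less growth.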 Calls of active or inactive are those of the source. Rule as the data show it: active = GI50 up to about 1.1 µM and inactive = higher.

Columns and labels:
Experiment in all cases: NCI tumour cell line growth inhibition, 48 h
[1] = tested on: HT-29
[2] = tested on: TK-10
[3] = tested on: UACC-257
[4] = tested on: CAKI-1
[5] = tested on: OVCAR-8
[6] = tested on: CCRF-CEM
[7] = tested on: KM12
[8] = tested on: M14
[9] = tested on: NCI-H23
[10] = tested on: HOP-92
[11] = tested on: SF-268
[12] = tested on: UO-31
[13] = tested on: 786-0
[14] = tested on: EKVX
[15] = tested on: PC-3
[16] = tested on: MOLT-4
[17] = tested on: NCI-H460
[18] = tested on: BT-549
[19] = tested on: A549
[20] = tested on: NCI-H522

Row | SMILES | GI50 [1] | GI50 [2] | GI50 [3] | GI50 [4] | GI50 [5] | GI50 [6] | GI50 [7] | GI50 [8] | GI50 [9] | GI50 [10] | GI50 [11] | GI50 [12] | GI50 [13] | GI50 [14] | GI50 [15] | GI50 [16] | GI50 [17] | GI50 [18] | GI50 [19] | GI50 [20]
1 | CCCCCCCCCCCC[C@@H](O)[C@H]1CC[C@H]([C@H]2CC[C@H]([C@H](O)CC[C@H](O)CCCCCCCC3=C[C@H](C)OC3=O)O2)O1 | 1.76 µM (inactive) | 1.21 µM (inactive) | 0.136 µM (active) | 2.67 µM (inactive) | 1.82 µM (inactive) | 1.09 µM (active) | 1.44 µM (inactive) | 1.64 µM (inactive) | 0.0201 µM (active) | 2.16 µM (inactive) | 1.55 µM (inactive) | 0.562 µM (active) | 2.4 µM (inactive) | 1.1 µM (active) | 1.55 µM (inactive) | 1.84 µM (inactive) | 1.08 µM (active) | 0.00352 µM (active) | 1.35 µM (inactive) | –
2 | O=C1[C@H](c2ccccc2)C2c3ccccc3CCN12 (some centres not stated) | > 10 µM (inactive) | > 10 µM (inactive) | > 10 µM (inactive) | > 10 µM (inactive) | > 10 µM (inactive) | > 10 µM (inactive) | > 10 µM (inactive) | > 10 µM (inactive) | > 10 µM (inactive) | – | > 10 µM (inactive) | > 100 µM (inactive) | > 10 µM (inactive) | > 10 µM (inactive) | > 10 µM (inactive) | > 10 µM (inactive) | > 10 µM (inactive) | > 10 µM (inactive) | > 10 µM (inactive) | > 10 µM (inactive)
3 | CCOC(=O)c1nc2ccc(C(F)(F)F)cc2nc1Oc1cc(OC)cc(OC)c1 | > 100 µM (inactive) | > 100 µM (inactive) | > 100 µM (inactive) | – | > 100 µM (inactive) | > 100 µM (inactive) | 36.8 µM (inactive) | > 100 µM (inactive) | – | 40.1 µM (inactive) | 93.3 µM (inactive) | > 100 µM (inactive) | > 100 µM (inactive) | > 100 µM (inactive) | > 100 µM (inactive) | > 100 µM (inactive) | 60.5 µM (inactive) | > 100 µM (inactive) | > 100 µM (inactive) | –
4 | CC(C)(C)c1ccc2c(c1)C#Cc1cc(C(C)(C)C)ccc1OCCCO2 | > 100 µM (inactive) | > 100 µM (inactive) | > 100 µM (inactive) | > 100 µM (inactive) | > 100 µM (inactive) | > 100 µM (inactive) | > 100 µM (inactive) | > 100 µM (inactive) | > 100 µM (inactive) | – | > 100 µM (inactive) | > 100 µM (inactive) | > 100 µM (inactive) | > 100 µM (inactive) | > 100 µM (inactive) | > 100 µM (inactive) | > 100 µM (inactive) | > 100 µM (inactive) | > 100 µM (inactive) | > 100 µM (inactive)
5 | Cc1cc(C(=O)CCCCOc2ccc(C3=NCCO3)cc2)c(C)n1C | 39.1 µM (inactive) | 44.9 µM (inactive) | 3.98 µM (inactive) | 37.2 µM (inactive) | 33.2 µM (inactive) | 20.6 µM (inactive) | 38.5 µM (inactive) | 37.8 µM (inactive) | 41.1 µM (inactive) | – | 52.1 µM (inactive) | 39.9 µM (inactive) | 38.6 µM (inactive) | 35.8 µM (inactive) | 19.9 µM (inactive) | 14.7 µM (inactive) | – | 33.3 µM (inactive) | > 10 µM (inactive) | 50.7 µM (inactive)
6 | N#CC(/N=N/c1ccccc1C(=O)O)C(N)=O (configuration not stated) | > 100 µM (inactive) | > 100 µM (inactive) | > 100 µM (inactive) | > 100 µM (inactive) | – | > 100 µM (inactive) | > 100 µM (inactive) | > 100 µM (inactive) | > 100 µM (inactive) | – | – | > 100 µM (inactive) | > 100 µM (inactive) | > 100 µM (inactive) | > 100 µM (inactive) | > 100 µM (inactive) | > 100 µM (inactive) | > 100 µM (inactive) | > 100 µM (inactive) | > 100 µM (inactive)
7 | COC(=O)Cc1ccc2c(cnn2-c2ccccc2)c1OC | > 10 µM (inactive) | > 10 µM (inactive) | > 10 µM (inactive) | > 10 µM (inactive) | > 10 µM (inactive) | > 10 µM (inactive) | > 10 µM (inactive) | > 10 µM (inactive) | > 10 µM (inactive) | – | > 10 µM (inactive) | – | > 10 µM (inactive) | 9.75 µM (inactive) | > 10 µM (inactive) | > 10 µM (inactive) | > 10 µM (inactive) | > 10 µM (inactive) | > 10 µM (inactive) | > 10 µM (inactive)
